Consider 14 compounds from patent publication US9067898B1, “Isothiazole derivatives as GPR120 agonists for the treatment of type II diabetes” (Janssen Pharmaceutica NV, priority 2014, dated 2015).

Broadly, the EC50 is the concentration at which the effect is half-maximal.

Molecules are shown by their SMILES.

This assay has as its target T1, Human GPR120 short form (Homo sapiens, UniProt Q5NUL3).
T1 construct: expressed in transfected cells
T1 sequence (Q5NUL3 1-361): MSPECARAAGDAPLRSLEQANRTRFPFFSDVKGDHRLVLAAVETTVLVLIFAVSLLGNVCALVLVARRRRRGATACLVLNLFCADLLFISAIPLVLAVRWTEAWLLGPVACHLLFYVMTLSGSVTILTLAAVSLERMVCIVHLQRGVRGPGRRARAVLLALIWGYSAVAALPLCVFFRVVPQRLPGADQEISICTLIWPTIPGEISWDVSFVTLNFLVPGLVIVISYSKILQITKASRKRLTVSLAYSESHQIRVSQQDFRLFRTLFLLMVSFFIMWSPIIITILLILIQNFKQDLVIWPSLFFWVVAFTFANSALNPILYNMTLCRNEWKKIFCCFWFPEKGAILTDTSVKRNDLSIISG
Briefly: Human GPR120 calcium flux assay (FLIPR), Procedure Calcium A. It is filed as cell-based. The settings on record: HEK-293 cells expressing human GPR120 short form, 2500 cells/well; read-out: GPR120 Ca2+ Assay A EC50. From the text: This in vitro assay serves to assess test compound agonist activity against the short splice variant (SVS with Accession number NM_001195755.1 confirmed by sequencing data) of the GPR120 receptor. The Human Short splice variant #2 (NM_001195755.1) is missing an in-frame coding exon compared to variant 1 (the Human Long splice variant NM_181745.3), resulting in a shorter isoform (GPR120-S) lacking a 16 aa protein segment compared to isoform GPR120-L. The assay platform utilizes HEK-293 cells stably transfected to express the Human GPR120 short form. These cells are first loaded with the Ca^+2 sensitive dye, Fluo-4 NW. Upon stimulation, intracellular released Ca^+2 can bind to the dye and alter its fluorescence intensity. This increase in fluorescence signal, and thus the flux in intracellular [Ca^2+], is detected and quantitated by fluorescence imaging using a FLIPR reader. The effect of the agonist is measured as a function of concentration and used to calculate an EC50 based upon a response curve.
In this procedure 2500 cells/well were employed.
A Human GPR120 clone (Genbank accession number NM_001195755.1) was placed into the pcDNA3.1 mammalian expression vector carrying the neomycin resistance gene. A stable mammalian cell was generated by placing the above clone into a HEK293 background. Clonal cells responding to long chain fatty acids had expression levels of GPR120 confirmed by RT-qPCR. Human HEK-GPR120 cells were cultured in Dulbecco's Modified Eagle's Medium (DMEM)/F12 medium supplemented with 10% fetal bovine serum (FBS), 1% L-Glutamine and 1% penicillin/streptomycin and 0.5 mg/ml G-418. Cells were split 2 times a week to keep the cells in the log-phase growth.
In preparation for the assay, HEK cells stably transfected with Human GPR120 (2.5K cells per well in 25 uL growth medium) were seeded into 384-well plates and then incubated overnight (37° C., 5% CO2). The next day, the media was changed to 20 μL assay buffer and the cell starved for 1 h at 37° C. The dye loading solution (2× dye) was prepared using 10 mL assay buffer, 100 μL of 250 mM probenecid, 1 bottle of Component A, and 20 μl of dye in DMSO. Twenty μL of the 2× dye loading buffer was then added to each well. The plates were incubated at 37° C. for 30 min, then at room temperature for an additional 15 minutes, before performing the assay on FLIPR. Test compounds were prepared in assay buffer (2 uL of cpd+198 uL assay buffer, final DMSO in assay plate is 0.2%) at the desired concentration, more particularly at 100, 50, 25, 12.5, 6.25, 3.125, 1.562, 0.781, 0.391, 0.195, 0.098, 0.049, 0.024 and 0.012 μM.
The assay was performed on a FLIPR plate reader using the following parameters. Baseline was read for 10 seconds at 1 sec intervals. The program was set to transfer 10 μL of ligand from compound plate to cell plate after baseline reading. Aspiration was executed at: 10 μL/sec speed, 4.6 μL height; Dispensing was executed at: 30 μL/sec speed, 45 μL height. After compound addition, each well was read for 300 sec, with measurements collected at 1 sec intervals.
The kinetic data from the FLIPR was based upon a 5 minute window for data collection. The fluorescence of each sample well was used for individual calculations of a normalized RFU value, which was defined as maximum response minus the minimum response. The normalized fluorescence reading (RFU) was calculated as follows: RFU=Fmax−Fmin The data were fitted to a sigmoidal dose-response curve with a variable Hill slope (<2) using nonlinear regression with GraphPad Prism 5.0 to calculate the EC50 values. The Fitting Equation was: Y=Bottom+(Top−Bottom)/(1+10^((Log EC50−X)*HillSlope)), where X is the log of the concentration and Y is the response.
As for `Cc1c(CCC(=O)O)ccc(OCc2c(-c3ccc(C(C)F)cc3)nsc2C(F)(F)F)c1C` (centres unmarked) [Cpd 146, 3-[4-([3-[4-(1-fluoroethyl)phenyl]-5-(trifluoromethyl)-1,2-thiazol-4-yl]methoxy)-2,3-dimethylphenyl]propanoic acid], the EC50 turned out to be 165 nM. With `CCc1ccc(-c2nsc(C3CC3)c2COc2ccc(CCC(=O)O)c(C)c2C)cc1` [Cpd 149, 3-(4-[[5-cyclopropyl-3-(4-ethylphenyl)-1,2-thiazol-4-yl]methoxy]-2,3-dimethylphenyl)propanoic acid] the figure was 167 nM; with `CCc1ccc(-c2nsc(C(F)(F)F)c2COc2ccc(CCC(=O)O)c(F)c2C(F)(F)F)cc1` [Cpd 157, 3-(4-[[3-(4-ethylphenyl)-5-(trifluoromethyl)-1,2-thiazol-4-yl]methoxy]-2-fluoro-3-(trifluoromethyl)phenyl)propanoic acid], 188 nM. As for `CCc1ccc(-c2sncc2COc2ccc(CCC(=O)O)c(C)c2C)cc1` [Cpd 158, 3-(4-[[5-(4-ethylphenyl)-1,2-thiazol-4-yl]methoxy]-2,3-dimethylphenyl)propanoic acid], the figure is 191 nM. As for `C#Cc1ccc(-c2nscc2COc2ccc(CCC(=O)O)c(C)c2C)cc1` [Cpd 161, 3-(4-((3-(4-ethynylphenyl)isothiazol-4-yl)methoxy)-2,3-dimethylphenyl)propanoic acid], the figure is 202 nM; as for `CCc1ccc(-c2nsc(C(F)(F)F)c2COc2c(F)cc(C3CC3C(=O)O)cc2F)cc1` (centres unmarked) [Cpd 163, 2-(4-[[3-(4-ethylphenyl)-5-(trifluoromethyl)-1,2-thiazol-4-yl]methoxy]-3,5-difluorophenyl)cyclopropane-1-carboxylic acid], 203 nM. For the compound `CCc1ccc(-c2nsc(C(F)(F)F)c2COc2ccc3c(c2)CCC3CC(=O)O)cc1` (centres unmarked) [Cpd 176, 2-(5-[[3-(4-ethylphenyl)-5-(trifluoromethyl)-1,2-thiazol-4-yl]methoxy]-2,3-dihydro-1H-inden-1-yl)acetic acid], the EC50 is 261 nM. As for `COc1cc(-c2nsc(C(F)(F)F)c2COc2c(F)cc(CCC(=O)O)cc2F)ccc1Cl` [Cpd 177, 3-(4-((3-(4-chloro-3-methoxyphenyl)-5-(trifluoromethyl)isothiazol-4-yl)methoxy)-3,5-difluorophenyl)propanoic acid], the figure is 263 nM.

Take `Cc1c(CCC(=O)O)ccc(OCc2c(-c3ccc(C(C)(F)F)cc3)nsc2C(F)(F)F)c1C` [Cpd 178, 3-[4-([3-[4-(1,1-difluoroethyl)phenyl]-5-(trifluoromethyl)-1,2-thiazol-4-yl]methoxy)-2,3-dimethylphenyl]propanoic acid]: the EC50 turned out to be 263 nM. With `COc1ccc(-c2snc(OC)c2COc2c(F)cc(CCC(=O)O)cc2F)cc1` [Cpd 182, 3-(3,5-difluoro-4-[[3-methoxy-5-(4-methoxyphenyl)-1,2-thiazol-4-yl]methoxy]phenyl)propanoic acid] the figure was 281 nM; with `COc1ccc(-c2snc(Cl)c2COc2ccc(CCC(=O)O)c(C)c2C)cc1` [Cpd 186, 3-(4-[[3-chloro-5-(4-methoxyphenyl)-1,2-thiazol-4-yl]methoxy]-2,3-dimethylphenyl)propanoic acid], 303 nM; with `CCc1ccc(-c2nsc(C(F)(F)C(F)(F)F)c2COc2ccc(CCC(=O)O)c(C)c2C)cc1` [Cpd 192, 3-(4-[[3-(4-ethylphenyl)-5-(pentafluoroethyl)-1,2-thiazol-4-yl]methoxy]-2,3-dimethylphenyl)propanoic acid], 332 nM. As for `CCc1ccc(-c2nsc(C(C)(F)F)c2COc2ccc(CCC(=O)O)c(C)c2C)cc1` [Cpd 200, 3-(4-[[5-(1,1-difluoroethyl)-3-(4-ethylphenyl)-1,2-thiazol-4-yl]methoxy]-2,3-dimethylphenyl)propanoic acid], the figure is 453 nM; as for `O=C(O)CCc1cc(F)c(OCc2csnc2-c2ccc(Cl)s2)c(F)c1` [Cpd 202, 3-(4-((3-(5-chlorothiophen-2-yl)isothiazol-4-yl)methoxy)-3,5-difluorophenyl)propanoic acid], 468 nM.
